In patent US12152020B2, “Pesticidally active azole-amide compounds” (SYNGENTA PARTICIPATIONS AG, priority 2018, dated 2024):

Columns and labels:
Assay type in all cases: in vivo
[1] = tested on: Diabrotica balteata (Corn Root Worm); assay: Example B1: Diabrotica balteata, maize sprouts sprayed, L2 larvae; conditions: 96 h, application rate of 200 ppm, 4 days after infestation, in comparison to untreated samples, read-out: effect in at least one of the two categories (mortality or growth inhibition)
In short: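 Maize sprouts on agar sprayed with aqueous test solutions made from 10′000 ppm DMSO stocks, dried, then infested with 6–10 L2 larvae per well. Mortality and growth inhibition scored against untreated samples 4 days after infestation.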

[2] = tested on: Euschistus heros (Neotropical Brown Stink Bug); assay: Example B2: Euschistus heros, soybean leaves sprayed, N2 nymphs; conditions: 120 h, application rate of 200 ppm, 5 days after infestation, in comparison to untreated samples, read-out: effect in at least one of the two categories (mortality or growth inhibition)
Description: Example B2: Euschistus heros (Neotropical Brown Stink Bug)
Soybean leaves on agar in 24-well microtiter plates were sprayed with aqueous test solutions prepared from 10′000 ppm DMSO stock solutions. After drying the leaves were infested with N2 nymphs. The samples were assessed for mortality and growth inhibition in comparison to untreated samples 5 days after infestation.
The following compounds gave an effect of at least 80% in at least one of the two categories (mortality or growth inhibition) at an application rate of 200 ppm: • P1, P2, P3, P7, P11, P12, P16, P17, P18, P22, P25, P29, P32, P33, P37, P38

[3] = tested on: Chilo suppressalis (Striped Rice Stemborer); assay: Example B4: Chilo suppressalis, artificial diet, L2 larvae; conditions: 144 h, application rate of 200 ppm, 6 days after infestation, in comparison to untreated samples, read-out: control in at least one of the categories (mortality, anti-feedant effect, or growth inhibition)
In short: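 Artificial diet was treated with aqueous dilutions made from 10'000 ppm DMSO stocks, dried, then infested with L2 larvae at 6–8 per well. Mortality, antifeedant effect and growth inhibition were assessed against untreated samples 6 days after infestation.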

[4] = tested on: Plutella xylostella (Diamond Back Moth); assay: Example B5: Plutella xylostella, artificial diet in 24-well plates, eggs; conditions: 192 h, application rate of 200 ppm, 8 days after infestation, in comparison to untreated samples, read-out: effect in at least one of the two categories (mortality or growth inhibition)
In short: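 Artificial diet in 24-well plates treated with aqueous test solutions made from 10′000 ppm DMSO stocks, dried, then infested with Plutella eggs. Mortality and growth inhibition scored against untreated samples 8 days after infestation.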

[5] = tested on: Myzus persicae (Green Peach Aphid); assay: Example B6: Myzus persicae feeding/contact activity, sunflower leaf discs; conditions: foliar, 144 h, application rate of 200 ppm, aphid population of mixed ages, 6 days after infestation
Description: Example B6: Myzus persicae (Green Peach Aphid): Feeding/Contact Activity
(§1) Sunflower leaf discs were placed onto agar in a 24-well microtiter plate and sprayed with aqueous test solutions prepared from 10′000 ppm DMSO stock solutions. After drying, the leaf discs were infested with an aphid population of mixed ages. The samples were assessed for mortality 6 days after infestation.

[6] = tested on: Myzus persicae (Green Peach Aphid); assay: Example B8: Myzus persicae intrinsic activity, sucrose solution under Parafilm, 24-well; conditions: 120 h, test rate of 12 ppm, 5 days after infestation
In short: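 Compounds, diluted from 10′000 ppm DMSO stocks, were mixed with sucrose solution in wells sealed with stretched Parafilm. Aphid-infested pea seedlings were placed on the Parafilm, and the covered plate was turned upside down. Mortality was scored 5 days after infestation.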

[7] = tested on: Spodoptera littoralis (Egyptian Cotton Leaf Worm); assay: Example B9: Spodoptera littoralis, cotton leaf discs sprayed, L1 larvae; conditions: foliar, 72 h, application rate of 200 ppm, five L1 larvae, 3 days after infestation, in comparison to untreated samples, read-out: control in at least one of the categories (mortality, anti-feedant effect, or growth inhibition)
In short: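 Cotton leaf discs on agar sprayed with aqueous solutions made from 10′000 ppm DMSO stocks, dried, then infested with five L1 larvae. Mortality, anti-feeding and growth inhibition assessed against untreated samples 3 days after infestation; control counted when any category exceeded untreated.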

[8] = tested on: Spodoptera littoralis (Egyptian Cotton Leaf Worm); assay: Example B10: Spodoptera littoralis, uptake by lettuce roots from agar, eggs; conditions: 144 h, test rate of 12.5 ppm, lettuce root uptake, 6 days after infestation, in comparison to untreated samples, read-out: effect in at least one of the three categories (mortality, anti-feeding, or growth inhibition)
Excerpt: Example B10: Spodoptera littoralis (Egyptian Cotton Leaf Worm)
Test compounds were applied by pipette from 10′000 ppm DMSO stock solutions into 24-well plates and mixed with agar. Lettuce seeds were placed onto the agar and the multi well plate was closed by another plate which contained also agar. After 7 days the compound was absorbed by the roots and the lettuce grew into the lid plate. The lettuce leaves were then cut off into the lid plate. Spodoptera eggs were pipetted through a plastic stencil onto a humid gel blotting paper and the lid plate was closed with it. The samples were assessed for mortality, anti-feedant effect and growth inhibition in comparison to untreated samples 6 days after infestation.
The following compounds gave an effect of at least 80% in at least one of the three categories (mortality, anti-feeding, or growth inhibition) at a test rate of 12.5 ppm: • P3, P15, P32

[9] = tested on: Myzus persicae (Green Peach Aphid); assay: Example B13: Myzus persicae, sucrose solution under Parafilm, 96-well; conditions: 120 h, application rate of 50 ppm, 5 days after infestation
In short: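 Compounds from 10′000 ppm DMSO stocks mixed into sucrose solution, with aphids feeding through a Parafilm membrane in inverted plates. Mortality assessed 5 days after infestation.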

[10] = tested on: Plutella xylostella (Diamondback Moth); assay: Example B14: Plutella xylostella, artificial diet in 96-well plates, eggs; conditions: 216 h, application rate of 500 ppm, 9 days after infestation
In short: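 Artificial diet in microtiter wells treated with aqueous dilutions of DMSO stocks, dried, then infested with ~30 eggs per well; hatching L1 larvae feed on treated diet. Mortality scored 9 days after infestation.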

[11] = tested on: Myzus persicae (Green Peach Aphid); assay: Example B7: Myzus persicae systemic activity, pea seedling roots in test solution; conditions: 144 h, test rate of 24 ppm, 6 days after placing seedlings into test solutions
Description: Example B7: Myzus persicae (Green Peach Aphid): Systemic Activity
Roots of pea seedlings infested with an aphid population of mixed ages were placed directly into aqueous test solutions prepared from 10′000 DMSO stock solutions. The samples were assessed for mortality 6 days after placing seedlings into test solutions.

[12] = tested on: Thrips tabaci (Onion thrips); assay: Example B12: Thrips tabaci feeding/contact activity, sunflower leaf discs; conditions: foliar, 144 h, application rate of 200 ppm, thrips population of mixed ages, 6 days after infestation
Description: Example B12: Thrips tabaci (Onion thrips): Feeding/Contact Activity
as §1, with “on” for “onto”, “in” for “in a”, “plates” for “plate”, “drying” for “drying,”, “a thrips” for “an aphid”

[13] = tested on: Tetranychus urticae (Two-Spotted Spider Mite); assay: Example B11: Tetranychus urticae feeding/contact activity, bean leaf discs; conditions: foliar, 192 h
Description: Example B11: Tetranychus urticae (Two-Spotted Spider Mite): Feeding/Contact Activity
Bean leaf discs on agar in 24-well microtiter plates were sprayed with aqueous test solutions prepared from 10′000 ppm DMSO stock solutions. After drying the leaf discs were infested with a mite population of mixed ages. The samples were assessed for mortality on mixed population (mobile stages) 8 days after infestation.

CC(c1nc(Br)nn1-c1ncccn1)N(C)C(=O)c1cc(C(F)(F)F)cc(C(F)(F)F)c1 (stereo not shown) [Compound P3, N-[1-(5-bromo-2-pyrimidin-2-yl-1,2,4-triazol-3-yl)ethyl]-N-methyl-3,5-bis(trifluoromethyl)benzamide]
≥ 80%: percent effect (mortality or growth inhibition) at 200 ppm [1] | percent effect (mortality or growth inhibition) at 200 ppm [2] | percent control (mortality, anti-feedant effect or growth inhibition) at 200 ppm [3] | percent effect (mortality or growth inhibition) at 200 ppm [4] | mortality at 200 ppm [5] | mortality at 12 ppm [6] | percent control (mortality, anti-feedant effect or growth inhibition) at 200 ppm [7] | percent effect (mortality, anti-feeding or growth inhibition) at 12.5 ppm [8] | mortality at 50 ppm [9] | mortality at 500 ppm [10]

CC(c1nc(Cl)nn1-c1ncccn1)N(C)C(=O)c1cc(C(F)(F)F)cc(C(F)(F)F)c1 (stereo not shown) [Compound P15, N-[1-(5-chloro-2-pyrimidin-2-yl-1,2,4-triazol-3-yl)ethyl]-N-methyl-3,5-bis(trifluoromethyl)benzamide]
≥ 80%: percent effect (mortality or growth inhibition) at 200 ppm [1] | percent effect (mortality or growth inhibition) at 200 ppm [4] | percent control (mortality, anti-feedant effect or growth inhibition) at 200 ppm [7] | percent effect (mortality, anti-feeding or growth inhibition) at 12.5 ppm [8] | mortality at 50 ppm [9] | mortality at 500 ppm [10]

CC(=O)Nc1nc(C(C)N(C)C(=O)c2cc(C(F)(F)F)cc(C(F)(F)F)c2)n(-c2ncccn2)n1 (stereo not shown) [Compound P17, N-[1-(5-acetamido-2-pyrimidin-2-yl-1,2,4-triazol-3-yl)ethyl]-N-methyl-3,5-bis(trifluoromethyl) benzamide]
≥ 80%: percent effect (mortality or growth inhibition) at 200 ppm [1] | percent effect (mortality or growth inhibition) at 200 ppm [2] | percent effect (mortality or growth inhibition) at 200 ppm [4] | mortality at 200 ppm [5] | mortality at 24 ppm [11] | mortality at 12 ppm [6] | percent control (mortality, anti-feedant effect or growth inhibition) at 200 ppm [7] | mortality at 200 ppm [12] | mortality at 50 ppm [9] | mortality at 500 ppm [10]

CC(NC(=O)c1cc(Cl)cc(OC(F)(F)F)c1)c1nc(Br)nn1-c1ncccn1 (stereo not shown) [Compound P32, N-[1-(5-bromo-2-pyrimidin-2-yl-1,2,4-triazol-3-yl)ethyl]-3-chloro-5-(trifluoromethoxy)ben zamide]
≥ 80%: percent effect (mortality or growth inhibition) at 200 ppm [1] | percent effect (mortality or growth inhibition) at 200 ppm [2] | percent control (mortality, anti-feedant effect or growth inhibition) at 200 ppm [3] | percent effect (mortality or growth inhibition) at 200 ppm [4] | mortality at 12 ppm [6] | percent control (mortality, anti-feedant effect or growth inhibition) at 200 ppm [7] | percent effect (mortality, anti-feeding or growth inhibition) at 12.5 ppm [8] | mortality at 50 ppm [9] | mortality at 500 ppm [10]

COCCOc1nc(C(C)NC(=O)c2cc(C(F)(F)F)cc(C(F)(F)F)c2)n(-c2ncccn2)n1 (stereo not shown) [Compound P36, N-[1-[5-(2-methoxyethoxy)-2-pyrimidin-2-yl-1,2,4-triazol-3-yl]ethyl]-3,5-bis(trifluoromethyl) benzamide]
≥ 80%: percent control (mortality, anti-feedant effect or growth inhibition) at 200 ppm [3] | percent effect (mortality or growth inhibition) at 200 ppm [4] | mortality at 12 ppm [6] | percent control (mortality, anti-feedant effect or growth inhibition) at 200 ppm [7] | mortality at 200 ppm [13]
